Like-named read-outs stand apart in the source and are kept apart here.
What was measured:
[1] = system: ERα-dependent transcription; test: qPCR of ERα target gene transcripts (EBAG9, GREB1) in MCF-7 cells; format: cell-based, human
Method: (§1) Using total RNA derived from individual cells recovered over time, qPCR was carried out. […] Using total RNA prepared from the treated cells, qPCR was carried out. […] Using the nucleus extract, immunoprecipitation and immunoblotting were carried out.
Using total RNA prepared from the cells over time, qPCR was carried out.
(§2) Total RNA was prepared from the cells treated with various drugs, and qPCR was carried out.
The cells were washed with PBS three times, and were then cultured in phenol red-non-added DMEM (supplemented with 5% charcoal-stripped FBS) for 72 hours.
(§3) Quantitative RT-PCR was carried out according to the method described in Johmura et al., Molecular Cell 55: 73-84, 2014. Total RNA was extracted using ISOGEN II (Wako), and using this as a template, cDNA was synthesized using SuperScript II cDNA synthesis kit (Invitrogen). PCR amplification was carried out in a 96-well optical reaction plate, using Power SYBR Green PCR Master Mix (Applied Biosystems). The relative expression ratio of individual genes was normalized with respect to the expression level of GAPDH.

[2] = system: CFP-LacER, YFP-SRC-1 and FLAG-KDM4B foci; conditions: in the presence of E2 and 4-OHT
Method: (§4) The obtained cells were immunostained with anti-FLAG antibodies. Representative images are shown.
U205-LacO-I-SceI-TetO cells were cultured in a glass bottom dish (Iwaki) on the stage of BZ-9000 (Keyence) equipped with an environmental chamber (Keyence). The microscopic image was analyzed with BZ-9000 software.
In order to immobilize ERα on a Lac operator array stably incorporated into living cells, using a CFP-tagged lac receptor-ERα chimeric protein (CFP-LacER), accumulation of YFP-SRC-1 and KDM4B in an ERα-immobilized position was examined.

[3] = system: FLAG-Fbxo22 binding to ERα
Method: (§5) Immunoprecipitation and immunoblotting were carried out according to the method described in Johmura et al., Molecular Cell 55: 73-84, 2014. The cells were dissolved in a TBSN buffer (20 mM Tris-Cl (pH 8.0), 150 mM NaCl, 0.5% NP-40, 5 mM EGTA, 1.5 mM EDTA, and 0.5 mM Na3VO4). The obtained cell lysate was centrifuged at 4° C. at 15,000×g for 20 minutes, and was then used in immunoprecipitation using an antibody.

[4] = system: KDM4B forming a complex with ERα
ERα [5] = conditions: U2OS cells, Fbxo22 not expressed
Method: as §4, §3

T47D breast cancer cells = test: T47D cells transplanted into the mammary gland fat pad of NOD/Scid mice; format: in vivo, mouse; conditions: NOD/Scid mice with Fbxo22-knocked-out T47D cells treated with 4-OHT pellets, compared with mice with control cells
Method: Representative colony images (upper view) and the results of the assay are shown. […] Ki-67-positive and cleaved caspase 3-positive cells were counted, and the counted numbers were then normalized with respect to the cell nucleus in each section. *p<0.05, ***p<0.05. […] Thereafter, the cells were treated with trypsin, were then suspended in PBS, and were then mixed with Matrigel (CORNING 354230) at a mixing ratio of 1:1. […] Six weeks later, the mice were euthanized, the tumor was then excised, and the size of the tumor was then measured. Thereafter, the tumor was fixed with formalin and was then embedded in paraffin, and an HE stain slide glass was produced. The size of a tumor was evaluated as follows: V=(length×width×height×0.5326) mm^3. All of the mice were fed under a specific pathogen-free environment, and were treated in accordance with Animal Experiment Guidelines, Graduate School of Medicine and Faculty of Medicine, The University of Tokyo.

MCF-7 cells = test: Colony formation assay, MCF-7 cells; format: cell-based, human
Method: Representative colony images (upper view) and the results of the assay are shown. […] Ki-67-positive and cleaved caspase 3-positive cells were counted, and the counted numbers were then normalized with respect to the cell nucleus in each section. *p<0.05, ***p<0.05. The cells (5×10^2) were seeded on a 6-well plate, and were then cultured for 2 weeks. Thereafter, colonies were immobilized with methanol/acetic acid (1:1) for 15 minutes, and were then stained in 20% methanol/PBS containing 0.4% trypan blue (Sigma) for 15 minutes, followed by counting.

T47D cells = test: Colony formation assay, T47D cells; format: cell-based, human; conditions: Fbxo22-knocked-out T47D cells in the presence of E2 and 4-OHT, compared with control cells
Method: The cells (5×10^2) were seeded on a 6-well plate, and were then cultured for 2 weeks. Thereafter, colonies were immobilized with methanol/acetic acid (1:1) for 15 minutes, and were then stained in 20% methanol/PBS containing 0.4% trypan blue (Sigma) for 15 minutes, followed by counting.

ERα [6] = test: ChIP-Seq analysis of ERα binding in MCF-7 cells; format: cell-based, human; conditions: for ERα accumulation peaks detected: 2 hours, E2 line = E2 (10 nM), 4-OHT line = E2+4-OHT
Excerpt: Thereafter, DNA was extracted using a DNA purification column.

[7] = system: ERα complex with KDM4B and SRC-3
Method: as §1, §4, §2, §5
Regarding immunoprecipitation of ERα and KDM4B, a nuclear extract was prepared according to the method described in Hirokawa et al., Cancer Res. 74: 3880-3889, 2014. Cell pellets were suspended in buffer A (10 mM Hepes-KOH pH 7.9, 10 mM KCl, 1.5 mM MgCl2, 0.5 mM DTT, 0.5 mM PMSF, and protease inhibitor cocktail (Nakalai Tesque)) having five times the volume of the cell pellets, and the suspension was then incubated on ice for 5 minutes. Thereafter, the cells were centrifuged at 4° C. at 500×g for 5 minutes, and the obtained cell pellets were then suspended in buffer A having two times the volume of the cell pellets for homogenization. The homogenized cell suspension was centrifuged at 4° C. at 4,000×g for 5 minutes, and a cell nucleus was recovered in a precipitate. To the recovered nucleus, an equal amount of buffer B (20 mM Hepes-KOH pH 7.9, 600 mM KCl, 1.5 mM MgCl2, 0.2 mM EDTA, 25% glycerol, 0.5 mM DTT, 0.5 mM PMSF, and protease inhibitor cocktail) was added and suspended, and the obtained mixture was then blended at 4° C. for 30 minutes, using a rotator. The nuclear extract was centrifuged at 4° C. at 16,000×g for 15 minutes, and was then recovered in a supernatant. The nuclear extract was dialyzed against buffer C (20 mM Hepes-KOH pH 7.9, 100 mM KCl, 0.2 mM EDTA, 20% glycerol, 0.5 mM DTT, and 0.5 mM PMSF). After completion of the dialysis, the nuclear extract was centrifuged at 4° C. at 16,000×g for 30 minutes, and the remaining precipitate was then eliminated.
A protein (20 to 50 μg) was separated from the total cell lysate by SDS-PAGE, and was then transferred into a PVDF membrane (Millipore), which was then used in immunoblotting using various types of antibodies.

[8] = system: ERα-positive/HER2-negative breast cancer; test: Relapse-free survival of ERα-positive/HER2-negative breast cancer patients stratified by Fbxo22; format: in vivo, human; conditions: patient group that had undergone the TAM treatment
Excerpt: FIGS. 9A and 9B show representative immunohistochemical staining images of a normal mammary gland (FIG. 9A), an Fbxo22-positive mammary gland of human breast cancer (FIG. 9B, left view), and an Fbxo22-negative mammary gland (FIG. 9B, right view). Scale bar: 20 μm. FIGS. 9C to 9F show Kaplan-Meier survival curves formed by stratifying ERα-positive/HER2-negative breast cancer (FIG. 9C), Luminal A (low Ki-67) breast cancer (FIG. 9D), lymph node metastasis-negative breast cancer (FIG. 9E), and tamoxifen-administered breast cancer (FIG. 9F) by the expression of Fbxo22. The P value and the hazard ratio were calculated according to a log-rank test.
Formalin fixing, paraffin embedding, core needle aspiration biopsy cytology panels, and the clinical data thereof, which were derived from 163 cases of continuously treated T2 (diameter: 2 to 5 cm) ERα-positive/HER-2-negative primary breast cancers, were obtained from patients who underwent surgery at St. Marianna University School of Medicine Hospital from 2005 to 2009. […] A tissue section was incubated with anti-Fbxo22 antibody (GTX117774, GeneTex) used as a primary antibody, which was diluted to 1:200, and was then detected using an HRP-polymer-labeled secondary antibody (Histofine Simple Stain MAX PO (multi), Nichirei, Japan). […] The Fbxo22-positive cells were evaluated according to a blind test conducted by two pathologist. […]

[9] = system: ERα-positive breast cancer; conditions: cited from earlier work

Sequence of ERα complex with KDM4B and SRC-3 (P03372 whole entry, one chain of several): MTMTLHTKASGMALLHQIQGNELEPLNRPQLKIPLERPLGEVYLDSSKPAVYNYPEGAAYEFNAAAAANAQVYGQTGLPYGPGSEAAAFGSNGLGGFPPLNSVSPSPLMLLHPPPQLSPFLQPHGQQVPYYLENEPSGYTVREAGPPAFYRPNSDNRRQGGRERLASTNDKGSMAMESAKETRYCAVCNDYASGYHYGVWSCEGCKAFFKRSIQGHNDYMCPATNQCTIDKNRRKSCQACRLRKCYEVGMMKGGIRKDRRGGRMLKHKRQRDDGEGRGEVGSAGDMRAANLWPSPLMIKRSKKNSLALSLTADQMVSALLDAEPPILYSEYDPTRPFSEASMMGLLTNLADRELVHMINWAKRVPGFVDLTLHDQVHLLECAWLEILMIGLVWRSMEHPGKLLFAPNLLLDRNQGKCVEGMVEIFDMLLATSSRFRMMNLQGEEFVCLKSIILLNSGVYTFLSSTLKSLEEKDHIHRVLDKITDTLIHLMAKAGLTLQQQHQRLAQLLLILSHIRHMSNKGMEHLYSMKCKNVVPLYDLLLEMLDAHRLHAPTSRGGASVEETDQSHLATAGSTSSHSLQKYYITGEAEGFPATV
Sequence of CFP-LacER, YFP-SRC-1 and FLAG-KDM4B foci (P03372 311-547 limits assumed): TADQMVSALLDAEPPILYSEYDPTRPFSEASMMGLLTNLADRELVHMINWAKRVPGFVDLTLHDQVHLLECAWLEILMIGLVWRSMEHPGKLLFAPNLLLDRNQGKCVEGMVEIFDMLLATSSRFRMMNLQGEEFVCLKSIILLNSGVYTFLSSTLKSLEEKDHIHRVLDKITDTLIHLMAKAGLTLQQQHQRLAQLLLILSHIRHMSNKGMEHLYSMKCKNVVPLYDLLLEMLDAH
Sequence of KDM4B forming a complex with ERα (P03372 whole entry, one chain of several): as the sequence (P03372 whole entry, one chain of several) above
Sequence of FLAG-Fbxo22 binding to ERα (P03372 whole entry): as the sequence (P03372 whole entry, one chain of several) above

4-hydroxytamoxifen [4-OHT]
antagonistic activity of 4-OHT on transcription of EBAG9 and GREB1 ([1]; Fbxo22-depleted MCF-7 cells): suppressed
time after addition of 4-OHT at which transcript levels of GREB1 and EBAG1 became minimum ([1]; MCF-7, E2-depleted 72 h, E2 10 nM, 4-OHT 100 nM added 6 hours after E2): Six
transcription of EBAG9 and GREB1 ([1]; control MCF-7 cells stimulated by E2, treated with 4-OHT): strongly suppressed
colocalization of FLAG-KDM4B with CFP-LacER and YFP-SRC-1 ([2]; Fbxo22-depleted cells): colocalized
colocalization of FLAG-KDM4B with CFP-LacER and YFP-SRC-1 ([2]; control cells): not observed
FLAG-Fbxo22 binding to ERα [3]: recovered (increased)
ubiquitination of KDM4B forming a complex with ERα [4]: recovered
antagonistic activity of 4-OHT (ERα [5]; wild-type ERα expressed, stimulated by E2): suppressed
antagonistic activity of 4-OHT (ERα [5]; Δ44 ERα expressed): observed
tumor growth (tumor volume) (T47D breast cancer cells): clear increase
proliferation-suppressing effect of 4-OHT (MCF-7 cells; Fbxo22-depleted MCF-7 cells): reduced
proliferation-suppressing effect of 4-OHT (MCF-7 cells; Fbxo22-depleted MCF-7 cells with Fbxo22 re-expressed (FLAG-Fbxo22)): recovered
proliferation (colony formation) in the presence of E2 (MCF-7 cells; control MCF-7 cells, E2 10 nM, 4-OHT 100 nM): completely suppressed
colony formation (T47D cells): significantly promoted
ERα accumulation peaks detected (ERα [6]; Fbxo22-depleted MCF-7 cells): 19,924
interaction of ERα with a target region (ERα [6]; MCF-7 cells, E2+4-OHT versus E2): does not affect
accumulation of ERα in the promoter regions of GREB1 and IGFBP4 genes (ERα [6]; control and Fbxo22-depleted MCF-7 cells, E2 line = E2, 4-OHT line = E2+4-OHT): maintained
ERα accumulation peaks detected (ERα [6]; wild-type/control MCF-7 cells): 26,751
cofactor dynamics (KDM4B/SRC-3 dissociation, N-CoR interaction with ERα) ([7]; Fbxo22-depleted MCF-7 cells, E2 then 4-OHT): not observed
complex of ERα with KDM4B and SRC-3 ([7]; control MCF-7 cells stimulated by E2, then 4-OHT): dissociated

CC/C(=C(\c1ccccc1)c1ccc(OCCN(C)C)cc1)c1ccccc1 [TAM, Tamoxifen]
prognosis (relapse-free survival) of Fbxo22-negative breast cancer [8]: extremely poor prognosis
reduction of annual breast cancer mortality rate ([9]; TAM therapy): approximately 30%
early breast cancer patients with a recurrence within 15 years ([9]; patients treated by TAM): approximately 25%

Source: US20220120753A1, “METHOD FOR DETERMINING PROGNOSIS OF CANCER” (The University of Tokyo, priority 2018, published 2022)
